Activity calls are given as the source filed them.
Assays:
Glycine--tRNA ligase = biological target: T1, Glycine--tRNA ligase (Homo sapiens, UniProt P41250)
T1 sequence (P41250 whole entry): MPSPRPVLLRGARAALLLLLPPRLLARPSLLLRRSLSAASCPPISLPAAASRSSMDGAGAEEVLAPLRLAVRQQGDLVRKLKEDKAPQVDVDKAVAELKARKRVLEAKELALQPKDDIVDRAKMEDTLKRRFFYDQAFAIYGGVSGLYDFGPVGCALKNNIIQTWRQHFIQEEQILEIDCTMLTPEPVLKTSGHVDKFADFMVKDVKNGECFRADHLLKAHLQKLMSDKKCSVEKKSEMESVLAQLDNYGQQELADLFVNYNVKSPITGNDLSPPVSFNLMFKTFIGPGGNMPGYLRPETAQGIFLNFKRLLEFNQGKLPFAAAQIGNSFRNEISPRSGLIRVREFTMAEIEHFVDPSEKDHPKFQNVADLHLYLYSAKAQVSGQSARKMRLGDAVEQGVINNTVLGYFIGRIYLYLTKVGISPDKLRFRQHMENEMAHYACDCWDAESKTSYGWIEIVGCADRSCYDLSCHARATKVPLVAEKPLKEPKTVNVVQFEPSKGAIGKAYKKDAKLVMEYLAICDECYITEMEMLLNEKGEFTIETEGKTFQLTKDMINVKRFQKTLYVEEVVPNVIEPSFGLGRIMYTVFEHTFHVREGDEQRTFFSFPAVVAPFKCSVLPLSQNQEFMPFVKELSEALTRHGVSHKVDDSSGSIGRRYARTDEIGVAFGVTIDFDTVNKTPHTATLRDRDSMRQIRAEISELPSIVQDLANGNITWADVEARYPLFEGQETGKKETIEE

[1] = biological target: cAMP-dependent protein kinase catalytic subunit beta (Homo sapiens, UniProt P22694)
[2] = biological target: T2, Exosome RNA helicase MTR4 (Homo sapiens, UniProt P42285)
T2 sequence (P42285 whole entry): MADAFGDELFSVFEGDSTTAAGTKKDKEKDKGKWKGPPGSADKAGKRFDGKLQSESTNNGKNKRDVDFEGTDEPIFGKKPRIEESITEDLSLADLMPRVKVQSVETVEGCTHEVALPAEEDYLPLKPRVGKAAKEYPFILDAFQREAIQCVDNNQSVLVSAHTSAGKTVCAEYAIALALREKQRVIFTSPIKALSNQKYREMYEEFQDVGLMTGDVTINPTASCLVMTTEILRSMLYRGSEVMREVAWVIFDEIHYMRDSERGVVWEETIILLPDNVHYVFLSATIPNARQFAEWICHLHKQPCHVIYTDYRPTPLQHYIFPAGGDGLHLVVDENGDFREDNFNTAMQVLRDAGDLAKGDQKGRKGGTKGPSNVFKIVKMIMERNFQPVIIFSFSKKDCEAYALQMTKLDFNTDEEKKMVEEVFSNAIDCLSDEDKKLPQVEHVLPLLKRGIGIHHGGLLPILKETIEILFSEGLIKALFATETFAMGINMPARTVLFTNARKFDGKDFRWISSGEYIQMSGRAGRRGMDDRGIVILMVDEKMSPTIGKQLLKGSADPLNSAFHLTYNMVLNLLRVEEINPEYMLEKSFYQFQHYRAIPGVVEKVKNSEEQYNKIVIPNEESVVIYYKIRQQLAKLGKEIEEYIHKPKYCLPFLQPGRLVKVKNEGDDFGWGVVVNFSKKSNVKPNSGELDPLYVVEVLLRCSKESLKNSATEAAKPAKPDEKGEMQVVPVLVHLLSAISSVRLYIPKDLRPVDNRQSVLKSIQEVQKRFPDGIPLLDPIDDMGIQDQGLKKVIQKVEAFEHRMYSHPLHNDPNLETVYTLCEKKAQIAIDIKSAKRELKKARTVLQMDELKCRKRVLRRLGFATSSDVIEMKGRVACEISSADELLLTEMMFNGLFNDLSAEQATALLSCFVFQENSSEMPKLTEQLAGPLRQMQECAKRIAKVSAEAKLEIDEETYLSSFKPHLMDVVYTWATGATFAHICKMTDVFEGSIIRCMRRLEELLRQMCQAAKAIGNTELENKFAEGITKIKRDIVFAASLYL

[3] = biological target: NADH dehydrogenase [ubiquinone] 1 alpha subcomplex subunit 13 (Homo sapiens, UniProt Q9P0J0)
[4] = biological target: DNA topoisomerase 2-alpha (Homo sapiens, UniProt P11388)
Myosin-10 = Myosin-10 (Homo sapiens, UniProt P35580)
TGF-beta receptor type-1 = biological target: T3, TGF-beta receptor type-1 (Homo sapiens, UniProt P36897)
T3 sequence (P36897 whole entry): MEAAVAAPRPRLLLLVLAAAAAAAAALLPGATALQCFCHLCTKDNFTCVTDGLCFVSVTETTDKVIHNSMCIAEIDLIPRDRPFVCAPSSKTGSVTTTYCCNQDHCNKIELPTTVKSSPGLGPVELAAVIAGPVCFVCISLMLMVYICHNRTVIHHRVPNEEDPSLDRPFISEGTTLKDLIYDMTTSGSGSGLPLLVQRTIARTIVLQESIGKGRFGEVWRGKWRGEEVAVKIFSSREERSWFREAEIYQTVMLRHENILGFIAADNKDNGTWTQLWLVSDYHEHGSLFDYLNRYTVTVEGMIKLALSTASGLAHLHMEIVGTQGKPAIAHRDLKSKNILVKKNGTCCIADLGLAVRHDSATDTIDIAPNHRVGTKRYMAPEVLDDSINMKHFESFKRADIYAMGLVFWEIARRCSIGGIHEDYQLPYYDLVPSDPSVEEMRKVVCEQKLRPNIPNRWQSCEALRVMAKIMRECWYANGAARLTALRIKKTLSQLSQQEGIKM

[5] = biological target: T4, Cytochrome c1, heme protein, mitochondrial (Homo sapiens, UniProt P08574)
T4 sequence (P08574 whole entry): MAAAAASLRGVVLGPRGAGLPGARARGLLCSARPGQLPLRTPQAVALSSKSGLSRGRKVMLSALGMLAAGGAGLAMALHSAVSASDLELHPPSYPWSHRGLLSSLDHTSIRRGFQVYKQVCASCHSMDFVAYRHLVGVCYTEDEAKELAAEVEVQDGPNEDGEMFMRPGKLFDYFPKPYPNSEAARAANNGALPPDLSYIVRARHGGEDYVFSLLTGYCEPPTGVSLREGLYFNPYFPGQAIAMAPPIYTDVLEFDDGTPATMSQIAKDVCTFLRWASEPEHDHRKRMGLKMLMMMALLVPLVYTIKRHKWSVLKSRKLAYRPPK
Note: in the data inactive means no Kd found up to 30 µM.

NADH dehydrogenase [ubiquinone] 1 alpha subcomplex subunit 13, sequence (Q9P0J0 whole entry, one chain of several): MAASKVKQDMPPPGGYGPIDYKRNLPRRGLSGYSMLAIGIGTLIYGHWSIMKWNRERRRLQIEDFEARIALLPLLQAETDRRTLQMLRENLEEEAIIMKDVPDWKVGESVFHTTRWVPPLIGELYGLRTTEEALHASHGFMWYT
DNA topoisomerase 2-alpha, sequence (P11388 whole entry): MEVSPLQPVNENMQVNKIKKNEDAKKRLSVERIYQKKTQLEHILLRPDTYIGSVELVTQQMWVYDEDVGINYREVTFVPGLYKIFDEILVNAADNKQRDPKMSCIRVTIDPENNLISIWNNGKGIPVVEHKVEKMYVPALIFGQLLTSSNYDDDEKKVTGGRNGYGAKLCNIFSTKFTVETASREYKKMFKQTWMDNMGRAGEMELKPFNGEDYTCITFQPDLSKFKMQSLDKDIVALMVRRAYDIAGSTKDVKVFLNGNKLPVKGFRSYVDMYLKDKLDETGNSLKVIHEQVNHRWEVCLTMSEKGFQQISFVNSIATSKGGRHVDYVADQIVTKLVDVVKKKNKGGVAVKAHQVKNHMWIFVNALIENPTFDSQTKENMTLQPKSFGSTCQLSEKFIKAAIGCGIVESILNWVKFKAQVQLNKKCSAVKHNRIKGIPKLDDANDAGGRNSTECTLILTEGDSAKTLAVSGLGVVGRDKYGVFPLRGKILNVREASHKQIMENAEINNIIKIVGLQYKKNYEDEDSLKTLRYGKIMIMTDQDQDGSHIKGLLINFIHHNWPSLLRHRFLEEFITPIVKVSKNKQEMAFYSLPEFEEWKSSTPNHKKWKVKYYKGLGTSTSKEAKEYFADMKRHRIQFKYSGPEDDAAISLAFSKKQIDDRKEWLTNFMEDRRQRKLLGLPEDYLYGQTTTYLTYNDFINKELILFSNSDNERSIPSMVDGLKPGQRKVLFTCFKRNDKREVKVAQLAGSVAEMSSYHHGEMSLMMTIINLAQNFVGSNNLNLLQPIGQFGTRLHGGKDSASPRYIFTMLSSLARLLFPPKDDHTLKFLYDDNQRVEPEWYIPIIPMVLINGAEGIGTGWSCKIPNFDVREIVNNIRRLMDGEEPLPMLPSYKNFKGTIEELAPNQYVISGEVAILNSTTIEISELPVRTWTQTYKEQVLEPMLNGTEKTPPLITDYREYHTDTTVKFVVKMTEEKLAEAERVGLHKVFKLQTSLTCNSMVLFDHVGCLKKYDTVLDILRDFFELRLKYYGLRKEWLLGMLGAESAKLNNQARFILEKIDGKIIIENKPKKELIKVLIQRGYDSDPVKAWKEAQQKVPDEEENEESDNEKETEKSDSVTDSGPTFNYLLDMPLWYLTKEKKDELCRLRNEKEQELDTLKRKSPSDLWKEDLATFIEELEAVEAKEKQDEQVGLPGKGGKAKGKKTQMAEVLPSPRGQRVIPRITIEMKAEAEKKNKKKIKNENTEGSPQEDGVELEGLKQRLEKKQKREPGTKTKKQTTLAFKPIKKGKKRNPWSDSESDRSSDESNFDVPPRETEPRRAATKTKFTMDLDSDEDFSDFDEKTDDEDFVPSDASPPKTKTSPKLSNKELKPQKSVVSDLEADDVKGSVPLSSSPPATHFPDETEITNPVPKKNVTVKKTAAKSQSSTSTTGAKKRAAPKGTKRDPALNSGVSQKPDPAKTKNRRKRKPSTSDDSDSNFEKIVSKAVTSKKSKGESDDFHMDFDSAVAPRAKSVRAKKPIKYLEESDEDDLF
Myosin-10, sequence (P35580 whole entry): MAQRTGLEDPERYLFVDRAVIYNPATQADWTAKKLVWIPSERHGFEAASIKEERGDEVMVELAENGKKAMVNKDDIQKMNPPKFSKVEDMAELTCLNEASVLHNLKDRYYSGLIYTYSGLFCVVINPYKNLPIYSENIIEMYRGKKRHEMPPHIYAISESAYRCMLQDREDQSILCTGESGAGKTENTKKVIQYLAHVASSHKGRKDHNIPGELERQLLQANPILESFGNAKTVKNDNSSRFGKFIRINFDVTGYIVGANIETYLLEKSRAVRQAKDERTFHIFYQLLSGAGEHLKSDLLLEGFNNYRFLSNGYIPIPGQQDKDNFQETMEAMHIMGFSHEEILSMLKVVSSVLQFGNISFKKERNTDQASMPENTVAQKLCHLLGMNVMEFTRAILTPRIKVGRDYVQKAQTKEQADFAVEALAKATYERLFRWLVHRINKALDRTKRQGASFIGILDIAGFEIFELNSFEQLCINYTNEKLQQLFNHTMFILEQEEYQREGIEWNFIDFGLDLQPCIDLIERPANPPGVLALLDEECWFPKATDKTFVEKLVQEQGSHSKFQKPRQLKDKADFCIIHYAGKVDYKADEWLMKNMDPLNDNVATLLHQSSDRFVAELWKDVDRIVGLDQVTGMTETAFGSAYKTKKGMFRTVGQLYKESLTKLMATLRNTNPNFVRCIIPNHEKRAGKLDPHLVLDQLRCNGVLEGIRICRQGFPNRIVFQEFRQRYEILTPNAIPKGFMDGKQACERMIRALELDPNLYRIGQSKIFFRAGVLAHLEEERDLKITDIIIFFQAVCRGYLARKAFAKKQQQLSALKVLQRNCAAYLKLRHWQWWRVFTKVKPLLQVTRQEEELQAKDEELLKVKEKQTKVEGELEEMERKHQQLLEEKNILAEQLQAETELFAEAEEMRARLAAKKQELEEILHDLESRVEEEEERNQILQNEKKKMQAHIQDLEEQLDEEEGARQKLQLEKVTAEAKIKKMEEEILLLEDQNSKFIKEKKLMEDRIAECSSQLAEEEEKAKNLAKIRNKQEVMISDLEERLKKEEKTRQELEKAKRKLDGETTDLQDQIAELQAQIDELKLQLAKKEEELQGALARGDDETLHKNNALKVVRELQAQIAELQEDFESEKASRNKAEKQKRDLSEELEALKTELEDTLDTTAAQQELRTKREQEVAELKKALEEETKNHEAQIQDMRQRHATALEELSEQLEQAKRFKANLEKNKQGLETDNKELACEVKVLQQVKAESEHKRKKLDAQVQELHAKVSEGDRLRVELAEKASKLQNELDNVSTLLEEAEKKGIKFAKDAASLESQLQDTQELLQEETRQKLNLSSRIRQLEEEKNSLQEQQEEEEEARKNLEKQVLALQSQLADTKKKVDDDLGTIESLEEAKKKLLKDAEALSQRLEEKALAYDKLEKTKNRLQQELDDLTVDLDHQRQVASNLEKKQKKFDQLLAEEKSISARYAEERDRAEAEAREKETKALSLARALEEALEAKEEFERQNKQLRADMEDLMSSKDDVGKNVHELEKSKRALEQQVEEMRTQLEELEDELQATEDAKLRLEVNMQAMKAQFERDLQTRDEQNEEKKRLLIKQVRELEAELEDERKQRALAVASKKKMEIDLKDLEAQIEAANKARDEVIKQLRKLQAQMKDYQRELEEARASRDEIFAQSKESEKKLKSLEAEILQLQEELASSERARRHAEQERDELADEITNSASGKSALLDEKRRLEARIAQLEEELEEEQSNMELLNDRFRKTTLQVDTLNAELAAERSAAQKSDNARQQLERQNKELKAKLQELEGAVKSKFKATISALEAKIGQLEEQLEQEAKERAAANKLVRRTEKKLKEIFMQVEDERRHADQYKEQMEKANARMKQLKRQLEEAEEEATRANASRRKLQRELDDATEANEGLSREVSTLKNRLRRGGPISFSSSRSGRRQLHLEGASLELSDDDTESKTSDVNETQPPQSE

Compound | Kd (Glycine--tRNA ligase) | Kd [1] | Kd [2] | Kd [3] | Kd [4] | Kd (Myosin-10) | Kd (TGF-beta receptor type-1) | Kd [5]
COCc1c(-c2ccc(NC(=O)Nc3cc(C(F)(F)F)ccc3F)c(F)c2)c2c(N)ncnn2c1CN1CCOCC1 | > 30 µM (inactive) | > 30 µM (inactive) | > 30 µM (inactive) | > 30 µM (inactive) | > 30 µM (inactive) | > 30 µM (inactive) | > 30 µM (inactive) | > 30 µM (inactive)
CNC(=O)c1ccccc1Sc1ccc2c(/C=C/c3ccccn3)n[nH]c2c1 [AXITINIB] | > 30 µM (inactive) | – | > 30 µM (inactive) | > 30 µM (inactive) | > 30 µM (inactive) | > 30 µM (inactive) | – | > 30 µM (inactive)
NC(=O)Nc1cc(-c2cccc(F)c2)sc1C(=O)N[C@H]1CCCNC1 [AZD-7762] | > 30 µM (inactive) | > 30 µM (inactive) | > 30 µM (inactive) | > 30 µM (inactive) | > 30 µM (inactive) | > 30 µM (inactive) | > 30 µM (inactive) | –
COc1c(OCCCN2CCOCC2)ccc2c1N=C(NC(=O)c1cnc(N)nc1)N1CCN=C21 [COPANLISIB] | > 30 µM (inactive) | > 30 µM (inactive) | > 30 µM (inactive) | > 30 µM (inactive) | – | > 30 µM (inactive) | > 30 µM (inactive) | > 30 µM (inactive)
CC(C)(C)c1nc(-c2cccc(NS(=O)(=O)c3c(F)cccc3F)c2F)c(-c2ccnc(N)n2)s1 [DABRAFENIB] | > 30 µM (inactive) | – | > 30 µM (inactive) | > 30 µM (inactive) | > 30 µM (inactive) | > 30 µM (inactive) | 2.38 µM (active) | > 30 µM (inactive)
Cn1cc(C2=C(c3cn(C4CCN(Cc5ccccn5)CC4)c4ccccc34)C(=O)NC2=O)c2ccccc21 [ENZASTAURIN] | > 30 µM (inactive) | – | > 30 µM (inactive) | > 30 µM (inactive) | – | > 30 µM (inactive) | – | > 30 µM (inactive)
O=C(Nc1nc2cccc(-c3ccc(CN4CCS(=O)(=O)CC4)cc3)n2n1)C1CC1 [FILGOTINIB] | > 30 µM (inactive) | > 30 µM (inactive) | > 30 µM (inactive) | > 30 µM (inactive) | – | > 30 µM (inactive) | > 30 µM (inactive) | > 30 µM (inactive)
CCCCCCCCCCCCCCCCCCOP(=O)([O-])OC1CC[N+](C)(C)CC1 [PERIFOSINE] | > 30 µM (inactive) | > 30 µM (inactive) | > 30 µM (inactive) | > 30 µM (inactive) | – | > 30 µM (inactive) | > 30 µM (inactive) | > 30 µM (inactive)
N#CC[C@H](C1CCCC1)n1cc(-c2ncnc3[nH]ccc23)cn1 [RUXOLITINIB] | > 30 µM (inactive) | – | > 30 µM (inactive) | > 30 µM (inactive) | – | > 30 µM (inactive) | – | > 30 µM (inactive)
CO[C@H]1C[C@@H]2CC[C@@H](C)[C@@](O)(O2)C(=O)C(=O)N2CCCC[C@H]2C(=O)O[C@H]([C@H](C)C[C@@H]2CC[C@@H](O)[C@H](OC)C2)CC(=O)[C@H](C)/C=C(\C)[C@@H](O)[C@@H](OC)C(=O)[C@H](C)C[C@H](C)/C=C/C=C/C=C/1C [SIROLIMUS] | > 30 µM (inactive) | > 30 µM (inactive) | > 30 µM (inactive) | – | > 30 µM (inactive) | > 30 µM (inactive) | > 30 µM (inactive) | > 30 µM (inactive)
O=C1NC(=O)[C@@H](c2cn3c4c(cccc24)CCC3)[C@@H]1c1c[nH]c2ccccc12 [TIVANTINIB] | > 30 µM (inactive) | > 30 µM (inactive) | > 30 µM (inactive) | > 30 µM (inactive) | > 30 µM (inactive) | – | > 30 µM (inactive) | > 30 µM (inactive)
Cn1ncc(Cl)c1-c1cc(C(=O)N[C@H](CN)Cc2ccc(F)c(F)c2)oc1Cl [UPROSERTIB] | > 30 µM (inactive) | 0.049 µM (active) | > 30 µM (inactive) | – | > 30 µM (inactive) | > 30 µM (inactive) | > 30 µM (inactive) | > 30 µM (inactive)

More lines, now with the values ahead:

Kd (Glycine--tRNA ligase) | Kd [1] | Kd [2] | Kd [3] | Kd [4] | Kd (Myosin-10) | Kd (TGF-beta receptor type-1) | Kd [5] | Compound
> 30 µM (inactive) | > 30 µM (inactive) | > 30 µM (inactive) | – | > 30 µM (inactive) | > 30 µM (inactive) | > 30 µM (inactive) | > 30 µM (inactive) | Cc1csc(-c2nnc(Nc3ccc(Oc4ncccc4-c4ccnc(N)n4)cc3)c3ccccc23)c1 [AMG-900]
> 30 µM (inactive) | – | > 30 µM (inactive) | > 30 µM (inactive) | > 30 µM (inactive) | > 30 µM (inactive) | – | > 30 µM (inactive) | C[C@@H](Oc1cc(-n2cnc3ccc(CN4CCN(C)CC4)cc32)sc1C(N)=O)c1ccccc1C(F)(F)F [GSK-461364]
> 30 µM (inactive) | – | > 30 µM (inactive) | > 30 µM (inactive) | > 30 µM (inactive) | > 30 µM (inactive) | 0.005 µM (active) | > 30 µM (inactive) | NC(=O)c1c(OCc2c(F)cc(Br)cc2F)nsc1NC(=O)NCCCCN1CCCC1 [OSI-632]
> 30 µM (inactive) | > 30 µM (inactive) | > 30 µM (inactive) | – | – | > 30 µM (inactive) | > 30 µM (inactive) | > 30 µM (inactive) | CC(=O)NCC(=O)N1[C@@H]2CC[C@H]1c1ccc(Nc3ncc(C(F)(F)F)c(NC4CCC4)n3)cc12 [PF-03814735]
> 30 µM (inactive) | > 30 µM (inactive) | > 30 µM (inactive) | > 30 µM (inactive) | – | > 30 µM (inactive) | > 30 µM (inactive) | > 30 µM (inactive) | Cn1cc(-c2cnn3c(N)c(Br)c([C@@H]4CCCNC4)nc23)cn1 [SCH-900776]
> 30 µM (inactive) | > 30 µM (inactive) | > 30 µM (inactive) | > 30 µM (inactive) | – | > 30 µM (inactive) | 0.197 µM (active) | > 30 µM (inactive) | CCS(=O)(=O)c1cccc(-c2cc(C(=O)NC3CCN(C)CC3)c(C)c3[nH]c4ncc(C)cc4c23)c1 [TAK-901]

Source: ChEMBL document CHEMBL3991601, “The target landscape of clinical kinase drugs” (Science, 2017)
